Source: ChEMBL document CHEMBL1201862, “PubChem BioAssay data set” (2004)
Activity calls are given as the source filed them.

What was measured:
[1] = HPDE-C7 pancreatic duct cell viability loss – fluorescence, HTS (AID 430); assay type: functional, cell-based; conditions: Homo sapiens
[2] = viability loss of HPDE-C7K cells – cell-based, fluorescence, HTS, primary screen (AID 431); assay type: functional; conditions: Homo sapiens
[3] = test system: HEK293; assay: EBV LMP1 TES2 canonical NF-kB signalling blockers – cell-based, HEK293, luciferase, cherry-pick, dose response (AID 588343); assay type: functional; conditions: Homo sapiens
[4] = reduction of Shn3 3'UTR-driven luciferase in osteoblasts – cell-based, Clone20 osteoblasts, firefly luciferase, cherry-picked, dose response (AID 624132); assay type: functional;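 also: firefly luciferase luminescence from reporter carrying the Shn3 3'UTR in osteoblasts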
[5] = loss of viability in HepG2 cells – cell-based, CellTiter-Glo, cherry-picked, cytotoxicity control for Shn3 inhibitor project, dose response (AID 624134); assay type: functional
[6] = non-specific 3'UTR reporter inhibition in Clone20-Shn3RL – cell-based, Renilla luciferase, cherry-picked, counter-screen for Shn3 inhibitor project, dose response (AID 624133); assay type: functional
[7] = test system: Vero; assay: cells; assay type: functional, cell-based; conditions: Chlorocebus sabaeus
[8] = test system: Vero; assay: cells; assay type: functional; conditions: Chlorocebus sabaeus
[9] = target: T1, Interleukin-8 (Homo sapiens, UniProt P10145); assay: Dose Response confirmation of uHTS small molecule hits for cystic fibrosis induced NFkb Inhibitors in a PAF-induced IL8 counterscreen.; assay type: functional; conditions: read-out: IC50_Mean
T1 sequence (P10145 whole entry): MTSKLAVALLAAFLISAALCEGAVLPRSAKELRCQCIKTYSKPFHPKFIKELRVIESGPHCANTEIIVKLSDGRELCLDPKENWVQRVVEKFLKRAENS

[10] = NIH-3T3 fibroblast cytotoxicity, dose response, cytotoxicity control, cell-based, fluorescence, Alamar Blue, secondary assay (AID 2327); assay type: functional;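 also: NIH-3T3 mouse fibroblasts cultured with fluconazole at 8 µg/mL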
[11] = fluconazole-exposed Candida albicans growth modulators – fluorescence, retest, confirmation (AID 2467); assay type: functional, cell-based
[12] = HEK-293T viability loss after treatment – luminescence, T-cell screen hits, cytotoxicity control for TCR NF-kB inhibitor project, dose response (AID 489026); assay type: functional, cell-based;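 also: cells exposed to compound about 14 hours before the viability readout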
[13] = test system: INS1; assay: INS-1E survival protection against cytokine death – cell-based, luminescence, retest, dose response (AID 449756); assay type: functional; conditions: Rattus norvegicus;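 also: cell death triggered by IL-1 beta plus TNF-alpha plus IFN-gamma mixture; protective hits raise ATP signal compared with cytokine alone wells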
[14] = target: T2, DNA repair protein RAD52 homolog (Homo sapiens, UniProt P43351); assay type: functional, biochemical
T2 sequence (P43351 whole entry): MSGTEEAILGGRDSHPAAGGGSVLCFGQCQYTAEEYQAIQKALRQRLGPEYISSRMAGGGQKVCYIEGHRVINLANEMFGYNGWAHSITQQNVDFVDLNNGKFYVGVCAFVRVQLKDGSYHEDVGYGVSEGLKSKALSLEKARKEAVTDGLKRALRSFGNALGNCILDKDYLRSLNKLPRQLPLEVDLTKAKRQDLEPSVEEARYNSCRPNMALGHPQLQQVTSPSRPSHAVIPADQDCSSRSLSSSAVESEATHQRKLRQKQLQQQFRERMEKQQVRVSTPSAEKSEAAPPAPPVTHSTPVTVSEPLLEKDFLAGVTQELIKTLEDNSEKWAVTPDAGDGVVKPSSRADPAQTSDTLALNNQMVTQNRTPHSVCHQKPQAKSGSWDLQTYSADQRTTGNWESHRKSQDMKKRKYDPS

[15] = target: Mu-type opioid receptor (Homo sapiens, UniProt P35372); assay type: functional, cell-based;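 also: U2OS cells with beta-arrestin recruitment to OPRM1 by beta-gal complementation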
[16] = target: 5-hydroxytryptamine receptor 2A (Mus musculus, UniProt P35363); assay type: functional, cell-based;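 also: CHO-K1 cells with tagged receptor and beta-arrestin; agonist potency measured as compound-induced activation of the receptor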
[17] = target: Large T antigen (Simian virus 40, UniProt P03070); assay type: functional, Betapolyomavirus macacae;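 also: Confirmatory-stage PubChem screen for compounds that inhibit SV40 T antigen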
[18] = target: Glucose-6-phosphate 1-dehydrogenase (Homo sapiens, UniProt P11413); assay: inhibition of Homo sapiens G6PD, dose series – biochemical, fluorescence, selectivity assay for P. falciparum G6PD inhibitor project, dose response (AID 504792); assay type: functional
[19] = target: DNA dC->dU-editing enzyme APOBEC-3G (Homo sapiens, UniProt Q9HC16); assay: Dose Response confirmation of small molecule APOBEC3G DNA Deaminase Inhibitors via a fluorescence-based single-stranded DNA deaminase assay. [Related pubchem assays (depositor defined):AID493012, AID493028]; assay type: functional
[20] = target: T3, Mitochondrial peptide methionine sulfoxide reductase (Bos taurus, UniProt P54149); assay: Absorbance-based biochemical high throughput dose response assay for activators of Methionine sulfoxide reductase A (MsrA).; assay type: functional
T3 sequence (P54149 whole entry): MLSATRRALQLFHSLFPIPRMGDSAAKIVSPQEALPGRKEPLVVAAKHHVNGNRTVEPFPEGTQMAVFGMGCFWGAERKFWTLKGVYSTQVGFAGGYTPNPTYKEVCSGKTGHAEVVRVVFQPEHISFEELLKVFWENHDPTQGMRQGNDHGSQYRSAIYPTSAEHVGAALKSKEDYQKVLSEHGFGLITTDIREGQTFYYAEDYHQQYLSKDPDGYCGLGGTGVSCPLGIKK

[21] = target: SWI/SNF-related matrix-associated actin-dependent regulator of chromatin subfamily A member 2 (Homo sapiens, UniProt P51531); assay: Luminescence-based cell-based high throughput dose response assay to identify activators of the function of SWI/SNF related, matrix associated, actin dependent regulator of chromatin, subfamily a, member 2 (SMARCA2, BRM).; assay type: functional
[22] = Counterscreen for activators of the function of SWI/SNF related, matrix associated, actin dependent regulator of chromatin, subfamily a, member 2 (SMARCA2, BRM): Luminescence-based cell-based high throughput dose response assay to identify non-selective compounds using the VP16 reporter assay.; assay type: functional
[23] = target: T4, Adenosylmethionine-8-amino-7-oxononanoate aminotransferase (Mycobacterium tuberculosis, UniProt P9WQ81); assay: Mycobacterium tuberculosis BioA enzyme inhibitor Measured in Biochemical System Using Plate Reader - 2163-02_Inhibitor_Dose_CherryPick_Activity.; assay type: functional, Mycobacterium tuberculosis UT205
T4 sequence (P9WQ81 whole entry): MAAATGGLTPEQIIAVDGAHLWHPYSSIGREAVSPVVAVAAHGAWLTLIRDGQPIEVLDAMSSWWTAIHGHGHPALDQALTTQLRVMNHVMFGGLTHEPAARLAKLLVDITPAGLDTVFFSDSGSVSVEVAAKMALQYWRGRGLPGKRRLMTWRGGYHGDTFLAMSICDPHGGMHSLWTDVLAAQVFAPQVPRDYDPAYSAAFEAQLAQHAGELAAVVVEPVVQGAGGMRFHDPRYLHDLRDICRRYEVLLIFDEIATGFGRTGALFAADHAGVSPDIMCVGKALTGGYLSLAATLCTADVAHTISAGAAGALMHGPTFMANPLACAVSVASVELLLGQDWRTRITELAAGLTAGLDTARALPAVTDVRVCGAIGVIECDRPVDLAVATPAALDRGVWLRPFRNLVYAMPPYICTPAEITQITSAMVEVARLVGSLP

[24] = cells; assay type: functional
[25] = bead-based luminescence quenchers, dual-tagged ARNT – biochemical, AlphaScreen, cherry-pick, artefact control for ARNT-TACC3 interaction inhibitor project, dose response (AID 651705); assay type: functional;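 also: AlphaScreen bead proximity signal that flags compounds interfering with the detection technology; potency reflects signal decrease which marks the compound as an assay artifact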

Chain of SWI/SNF-related matrix-associated actin-dependent regulator of chromatin subfamily A member 2 (P51531 whole entry): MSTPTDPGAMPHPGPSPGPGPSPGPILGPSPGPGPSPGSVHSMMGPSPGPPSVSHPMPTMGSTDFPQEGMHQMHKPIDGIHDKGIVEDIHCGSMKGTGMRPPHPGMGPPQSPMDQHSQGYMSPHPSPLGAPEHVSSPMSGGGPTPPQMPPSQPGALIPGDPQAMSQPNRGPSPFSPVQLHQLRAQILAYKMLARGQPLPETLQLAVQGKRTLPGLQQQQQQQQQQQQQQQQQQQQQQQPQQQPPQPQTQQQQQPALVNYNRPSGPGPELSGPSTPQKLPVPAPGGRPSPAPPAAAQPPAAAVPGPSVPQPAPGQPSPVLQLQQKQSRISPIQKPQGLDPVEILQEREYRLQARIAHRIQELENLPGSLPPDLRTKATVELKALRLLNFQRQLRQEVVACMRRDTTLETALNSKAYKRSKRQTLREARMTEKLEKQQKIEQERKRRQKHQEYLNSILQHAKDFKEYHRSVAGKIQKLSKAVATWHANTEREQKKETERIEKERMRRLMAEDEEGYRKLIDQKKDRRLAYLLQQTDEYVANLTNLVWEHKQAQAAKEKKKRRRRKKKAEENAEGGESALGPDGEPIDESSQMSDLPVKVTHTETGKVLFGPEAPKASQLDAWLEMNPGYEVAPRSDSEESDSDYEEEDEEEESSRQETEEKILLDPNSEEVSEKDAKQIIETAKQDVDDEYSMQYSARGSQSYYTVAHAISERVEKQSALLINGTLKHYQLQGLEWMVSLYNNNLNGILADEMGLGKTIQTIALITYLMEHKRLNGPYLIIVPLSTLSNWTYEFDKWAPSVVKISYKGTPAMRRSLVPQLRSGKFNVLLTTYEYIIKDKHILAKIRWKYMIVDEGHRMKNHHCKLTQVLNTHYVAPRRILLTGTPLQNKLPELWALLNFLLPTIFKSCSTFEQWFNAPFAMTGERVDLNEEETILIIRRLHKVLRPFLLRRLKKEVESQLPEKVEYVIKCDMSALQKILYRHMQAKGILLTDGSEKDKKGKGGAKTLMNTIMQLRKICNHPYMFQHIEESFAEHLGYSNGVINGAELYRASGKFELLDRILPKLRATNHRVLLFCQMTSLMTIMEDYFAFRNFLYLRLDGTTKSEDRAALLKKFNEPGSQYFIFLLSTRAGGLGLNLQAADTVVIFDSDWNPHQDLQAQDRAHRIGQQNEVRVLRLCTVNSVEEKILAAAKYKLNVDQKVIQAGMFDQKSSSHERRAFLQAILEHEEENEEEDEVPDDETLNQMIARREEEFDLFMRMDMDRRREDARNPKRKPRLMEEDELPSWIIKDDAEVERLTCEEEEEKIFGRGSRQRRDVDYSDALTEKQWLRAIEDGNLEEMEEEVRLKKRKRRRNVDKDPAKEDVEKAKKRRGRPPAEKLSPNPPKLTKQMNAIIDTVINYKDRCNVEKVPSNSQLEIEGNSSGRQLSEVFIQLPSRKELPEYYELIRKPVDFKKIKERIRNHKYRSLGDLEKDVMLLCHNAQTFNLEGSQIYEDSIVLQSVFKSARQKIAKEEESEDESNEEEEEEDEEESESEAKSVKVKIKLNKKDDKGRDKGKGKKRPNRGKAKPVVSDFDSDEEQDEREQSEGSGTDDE
Chain of Glucose-6-phosphate 1-dehydrogenase (P11413 whole entry): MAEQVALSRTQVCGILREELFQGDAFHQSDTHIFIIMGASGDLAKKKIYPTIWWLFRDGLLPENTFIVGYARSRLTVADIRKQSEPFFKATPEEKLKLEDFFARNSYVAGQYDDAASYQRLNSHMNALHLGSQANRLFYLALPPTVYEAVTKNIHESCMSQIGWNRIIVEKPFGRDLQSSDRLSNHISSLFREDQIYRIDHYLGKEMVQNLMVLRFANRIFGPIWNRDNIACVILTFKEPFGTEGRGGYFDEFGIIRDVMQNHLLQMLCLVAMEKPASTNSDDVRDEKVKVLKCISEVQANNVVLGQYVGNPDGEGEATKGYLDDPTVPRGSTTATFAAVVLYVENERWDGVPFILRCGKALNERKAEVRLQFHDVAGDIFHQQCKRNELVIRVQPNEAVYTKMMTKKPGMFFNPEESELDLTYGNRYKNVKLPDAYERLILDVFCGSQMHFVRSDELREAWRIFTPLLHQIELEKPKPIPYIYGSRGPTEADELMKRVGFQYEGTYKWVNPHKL
Chain of DNA dC->dU-editing enzyme APOBEC-3G (Q9HC16 whole entry): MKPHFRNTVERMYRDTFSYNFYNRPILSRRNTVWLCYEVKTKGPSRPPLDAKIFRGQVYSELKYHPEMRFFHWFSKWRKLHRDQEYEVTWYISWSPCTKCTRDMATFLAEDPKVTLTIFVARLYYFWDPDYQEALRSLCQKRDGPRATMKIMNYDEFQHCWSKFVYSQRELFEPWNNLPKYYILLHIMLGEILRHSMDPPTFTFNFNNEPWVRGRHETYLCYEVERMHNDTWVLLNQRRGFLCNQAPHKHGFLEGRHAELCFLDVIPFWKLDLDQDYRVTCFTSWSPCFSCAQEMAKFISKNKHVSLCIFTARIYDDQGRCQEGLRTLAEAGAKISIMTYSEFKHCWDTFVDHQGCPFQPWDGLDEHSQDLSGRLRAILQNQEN
Chain of Large T antigen (P03070 whole entry): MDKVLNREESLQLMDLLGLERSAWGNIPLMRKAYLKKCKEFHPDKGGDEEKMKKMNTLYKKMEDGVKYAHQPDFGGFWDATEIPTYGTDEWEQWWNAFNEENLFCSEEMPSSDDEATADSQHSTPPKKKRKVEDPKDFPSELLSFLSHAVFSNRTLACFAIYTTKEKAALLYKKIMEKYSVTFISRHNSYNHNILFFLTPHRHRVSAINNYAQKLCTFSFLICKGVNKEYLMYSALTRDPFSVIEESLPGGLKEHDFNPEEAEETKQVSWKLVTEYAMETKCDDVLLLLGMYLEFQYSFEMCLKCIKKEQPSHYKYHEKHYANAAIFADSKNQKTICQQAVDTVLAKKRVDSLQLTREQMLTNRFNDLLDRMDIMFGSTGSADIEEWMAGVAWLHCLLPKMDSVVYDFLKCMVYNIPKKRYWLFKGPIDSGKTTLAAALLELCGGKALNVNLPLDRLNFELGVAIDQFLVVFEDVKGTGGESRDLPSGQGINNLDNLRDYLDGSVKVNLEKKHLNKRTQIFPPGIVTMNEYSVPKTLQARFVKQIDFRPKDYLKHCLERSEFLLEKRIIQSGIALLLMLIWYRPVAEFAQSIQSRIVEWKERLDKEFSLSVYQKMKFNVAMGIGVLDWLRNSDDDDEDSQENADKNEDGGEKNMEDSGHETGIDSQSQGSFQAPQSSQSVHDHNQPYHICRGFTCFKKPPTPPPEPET
Chain of Mu-type opioid receptor (P35372 whole entry): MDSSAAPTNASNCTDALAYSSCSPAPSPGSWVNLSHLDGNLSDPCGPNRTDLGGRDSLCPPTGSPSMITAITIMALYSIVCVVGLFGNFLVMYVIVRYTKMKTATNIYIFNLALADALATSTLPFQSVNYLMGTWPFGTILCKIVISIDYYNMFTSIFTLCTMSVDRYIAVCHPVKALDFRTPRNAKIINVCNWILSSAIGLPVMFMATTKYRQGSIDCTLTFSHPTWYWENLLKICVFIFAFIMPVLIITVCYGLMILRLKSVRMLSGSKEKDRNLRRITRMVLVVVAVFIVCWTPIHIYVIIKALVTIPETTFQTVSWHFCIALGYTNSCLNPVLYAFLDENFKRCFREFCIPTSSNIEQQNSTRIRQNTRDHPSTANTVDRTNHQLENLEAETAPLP
Chain of 5-hydroxytryptamine receptor 2A (P35363 whole entry): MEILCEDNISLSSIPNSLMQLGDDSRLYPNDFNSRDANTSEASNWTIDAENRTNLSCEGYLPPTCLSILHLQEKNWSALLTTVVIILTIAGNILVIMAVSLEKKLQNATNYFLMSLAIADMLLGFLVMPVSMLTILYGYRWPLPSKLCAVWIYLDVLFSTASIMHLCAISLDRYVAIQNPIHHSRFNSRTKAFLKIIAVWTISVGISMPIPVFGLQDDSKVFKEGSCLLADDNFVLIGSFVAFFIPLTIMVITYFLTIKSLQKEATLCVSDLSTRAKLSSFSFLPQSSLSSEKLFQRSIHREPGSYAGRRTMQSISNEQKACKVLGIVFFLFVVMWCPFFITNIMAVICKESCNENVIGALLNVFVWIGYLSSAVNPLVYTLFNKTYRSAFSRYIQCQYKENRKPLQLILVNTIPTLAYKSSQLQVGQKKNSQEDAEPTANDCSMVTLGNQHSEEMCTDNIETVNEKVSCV

**Q.** Which EC50 [1] does the source give for `Fc1ccc2[nH]c3c(N4CCSCC4)ncnc3c2c1` here?
**A.** The EC50 was 13.4 µM (active).

**Q.** And the EC50 [2]?
**A.** Its EC50 is 13.3 µM (active).

**Q.** And the AC50 [3]?
**A.** The AC50 was 1.5 µM (active).

**Q.** What about the AC50 [4] of the same compound?
**A.** Its AC50 is 2.76 µM (active).

**Q.** What about the AC50 [5] of the same compound?
**A.** Its AC50 is 30 µM (active).

**Q.** And the AC50 [6]?
**A.** The AC50 was 2.6 µM (active).

**Q.** With `O=C(CNC(=O)c1cccc(S(=O)(=O)N2CCc3ccccc32)c1)Nc1ccccc1Br` as the compound, how does the IC50 [7] read?
**A.** Its IC50 is 16.9 µM (active).

**Q.** What about the CC50 [8] of the same compound?
**A.** The CC50 was > 25 µM (active).

**Q.** Which IC50 [9] does the source give for `CCn1c2ccccc2c2cc(/C=N/O)ccc21` here?
**A.** The IC50 was 7.06 µM (active).

**Q.** What does the source list for `CCCCCc1ccc(OCCCC[n+]2ccc(C)cc2)c(CCCCC)c1`?
**A.** EC50 [10]: > 160 µM (inactive); EC50 [11]: 516 nM (active); IC50 [12]: 58 µM (inactive); AC50 [13]: 1.92 µM (active); AC50 [14]: 21.7 µM (active)

**Q.** With `COc1ccc(C2/C=C\CN(C(=O)C3CCCC3)CC(=O)N2Cc2ccc(F)cc2)cc1` (centres undefined) as the compound, how does the EC50 [15] read?
**A.** The EC50 was 92.5 µM (inactive).

**Q.** What about the EC50 [16] of the same compound?
**A.** Its EC50 is 76.1 µM (inactive).

**Q.** Which results are given for `OCc1ccccc1SSc1ccccc1CO`?
**A.** IC50 [17]: 11.4 µM (active); IC50 [18]: > 80 µM (inactive); IC50 [19]: 12.3 µM (active); EC50 [20]: > 104 µM (inactive)

**Q.** For `O=C(c1cc2ccccc2oc1=O)N1CCOCC1`, which EC50 [21] is on record?
**A.** Its EC50 is > 91.2 µM (inactive).

**Q.** And the EC50 [22]?
**A.** Its EC50 is > 91.2 µM (inactive).

**Q.** With `CC(=O)N1CC[C@@H]2[C@@H](CO)N(C)c3ccc(-c4ccccc4)cc3[C@@H]21` as the compound, how does the AC50 [23] read?
**A.** Its AC50 is 8.17 µM (active).

**Q.** With `CC1CCCN(c2ccc(C(=O)Nc3cccnc3)cc2[N+](=O)[O-])C1` (centres undefined) as the compound, how does the AC50 [23] read?
**A.** The AC50 was 1.11 µM (active).

**Q.** Which IC50 [18] does the source give for `C[C@H](CO)N1C[C@H](C)[C@@H](CN(C)C(=O)Nc2ccc(C(F)(F)F)cc2)Oc2c(cccc2N(C)C)C1=O` here?
**A.** The IC50 was > 80 µM (inactive).

**Q.** Which results are given for `O=C(COC(=O)c1cccc(O)c1)c1ccccc1`?
**A.** EC50 [21]: > 91.1 µM (inactive); EC50 [22]: > 91.1 µM (inactive)

**Q.** Which IC50 [24] does the source give for `Fc1ccc(-c2ccc(CNCc3ccccn3)o2)cc1Cl` here?
**A.** Its IC50 is 4.34 µM (active).

**Q.** And the AC50 [25]?
**A.** Its AC50 is 88.6 µM (active).
